Patent publication US20100009920A1, “TTK AS TUMOR MARKER AND THERAPEUTIC TARGET FOR LUNG CANCER” (priority 2006, published 2010)
“Also recorded” adds a separate entry of the source. Like-named read-outs stand apart in the source and are kept apart here.

Assays:
Type in all cases: cell-based, human
A549 cells = test: Microscopic observation of cell morphology (phase contrast images); details: non-treated cells as control
Protocol: (§1) The oligo-siRNAs (Dharmacon, Inc., Lafayette, Colo.) ([…]) were transfected into appropriate lung-cancer cell lines using 30 micro-1 of Lipofectamine 2000 (Invitrogen, Carlsbad, Calif.) following the manufacturer's protocol. The ribonucleotide sequences corresponding to following sequences were used as the oligo-siRNA.
The endogenous association between TTK and EGFR in lung cancer cells was also investigated by immunoprecipitaion experiment using extracts from A549 cells, and the interaction between these two proteins regardless the EGF-stimulation was detected (FIG. 4b). To further examine the relevance of TTK to EGFR signaling, TTK or EGFR function in A549 cells were suppressed and cell morphology was microscopically observed.

TTK = TTK protein level in A549 cells after RNAi (western blot)
Protocol: (§2) Cells were lysed with RIPA buffer [50 mM Tris-HCl (pH 8.0), 150 mM NaCl, 1% NP-40, 0.5% deoxychorate-Na, 0.1% SDS] containing Protease Inhibitor Cocktail Set III (CALBIOCHEM) and phosphatase inhibitor (1 mM sodium fluoride, 1 mM sodium orthovanadate, 2 mM imidazole, 4 mM sodium tartrate). Cytoplasmic and nuclear extractions were isolated by NE-PER Nuclear and Cytoplasmic Extraction Reagents (PIERCE). Protein samples were separated by SDS-polyacrylamide gels and electroblotted onto Hybond-ECL nitrocellulose membranes (GE Healthcare Bio-sciences). […] Antigen-antibody complexes were detected using secondary antibodies conjugated to horseradish peroxidase (GE Healthcare Bio-sciences). […]

phospho-EGFR (Tyr-992) = test: Phospho-EGFR (Tyr-992) level in A549 cells after RNAi (immunofluorescence, western blot); details: for phosphorylation level of EGFR Tyr-992, western blot: A549 cells; for phospho-EGFR (Tyr-992), immunofluorescence: serum-starved A549 cells
Protocol: (§3) Cells were lysed with RIPA buffer [50 mM Tris-HCl (pH 8.0), 150 mM NaCl, 1% NP-40, 0.5% deoxychorate-Na, 0.1% SDS] containing Protease Inhibitor Cocktail Set III (CALBIOCHEM) and phosphatase inhibitor (1 mM sodium fluoride, 1 mM sodium orthovanadate, 2 mM imidazole, 4 mM sodium tartrate). Cytoplasmic and nuclear extractions were isolated by NE-PER Nuclear and Cytoplasmic Extraction Reagents (PIERCE). Protein samples were separated by SDS-polyacrylamide gels and electroblotted onto Hybond-ECL nitrocellulose membranes (GE Healthcare Bio-sciences). Blots were incubated with a mouse monoclonal anti-Mps1 (TTK) antibody (Upstate), rabbit polyclonal anti-phospho-EGFR antibodies (Tyr-845, Tyr-992, Tyr-1045, Tyr-1068, […], and Tyr-1173; Cell Signaling Technology, Inc.), a rabbit polyclonal anti-EGFR antibody (Cell Signaling Technology, Inc.), a rabbit polyclonal anti-phospho-PLCgamma1 (Tyr-771) antibody (Cell Signaling Technology, Inc.), a rabbit polyclonal anti-PLCgamma1 antibody (Cell Signaling Technology, Inc.), a rabbit polyclonal anti-phospho-p44/42 MAPK (Thr202/Tyr204) antibody (Cell Signaling Technology, Inc.), a rabbit polyclonal anti-p44/42 MAPK antibody (Cell Signaling Technology, Inc.), a mouse monoclonal anti-Flag antibody (SIGMA) or a mouse monoclonal anti-beta-actin antibody (SIGMA). Anti-phospho-EGFR (Ser-967) antibodies were raised against Ser-967-phosphorylated synthetic peptides and purified with the phosphopeptide column. Antigen-antibody complexes were detected using secondary antibodies conjugated to horseradish peroxidase (GE Healthcare Bio-sciences). Protein bands were visualized by ECL Western Blotting Detection Reagents (GE Healthcare Bio-sciences).
Cultured cells were fixed with 4% paraformaldehyde solution for 15 min at 37° C., or 10% Trichloro acetic acid for 15 min on ice. Fixed cells were incubated in PBS(−) containing 0.1% Triton X-100 for 10 min and subsequently washed with PBS(−). Prior to the primary antibody reaction, fixed cells were covered with CAS-BLOCK (ZYMED Laboratories Inc.) for 10 min to block non-specific-antibody binding. Then the cells were incubated with a mouse monoclonal anti-Mps1 (TTK) antibody (Upstate) and a rabbit polyclonal anti-phospho-EGFR (Tyr-992) (Cell Signaling Technology, Inc.), or a rabbit polyclonal anti-phospho-p44/42 MAPK (Thr202/Tyr204) antibody (Cell Signaling Technology, Inc.), or a mouse monoclonal anti-Flag antibody (SIGMA). Antibodies were stained with an anti-mouse secondary antibody conjugated to Alexa Fluor 488 (Molecular Probes) and an anti-rabbit secondary antibody conjugated to Alexa Fluor 594 (Molecular Probes). […] Images were viewed and assessed using a confocal microscope at wavelengths of 488, 594 nm (TCS SP2 AOBS: Leica Microsystems). […]

PLCγ1 and p44/42 MAPK = test: Western blot of PLCγ and p44/42 MAPK in A549 cells after RNAi
Protocol: as §3, §1

phospho-EGFR (Ser-967) = test: Phospho-EGFR (Ser-967) level in A549 cells after RNAi (immunofluorescence)
Protocol: as §2
Cultured cells were fixed with 4% paraformaldehyde solution for 15 min at 37° C., or 10% Trichloro acetic acid for 15 min on ice. […] Images were viewed and assessed using a confocal microscope at wavelengths of 488, 594 nm (TCS SP2 AOBS: Leica Microsystems). […]

[1] = listed as RNAi (oligo) against TTK

What does the source list for “CAAGATGTGTTAAAGTGTTTT (listed as DNA, chemistry not given here) [RNAi-TTK (oligo)]”?
cell morphology (A549 cells): became much larger with multiple nuclei; TTK protein (TTK): Reduction; also recorded: suppression; phosphorylation level of EGFR Tyr-992, western blot (phospho-EGFR (Tyr-992)): decreased; phosphorylation level of EGFR Tyr-992, western blot (phospho-EGFR (Tyr-992); [1]): reduced; phospho-EGFR (Tyr-992), immunofluorescence (phospho-EGFR (Tyr-992)): significantly decreased; phospho-EGFR (Tyr-992), immunofluorescence (phospho-EGFR (Tyr-992); listed as si-TTK): reduced; amount of PLCγ protein (PLCγ1 and p44/42 MAPK): did not affect; amount of p44/42 MAPK protein (PLCγ1 and p44/42 MAPK): did not affect; phospho-PLCγ (Tyr-771) (PLCγ1 and p44/42 MAPK): decrease; phosphorylation of p44/42 MAPK (Thr202/Tyr204) (PLCγ1 and p44/42 MAPK): decrease; phospho-PLCγ (Tyr-771) (PLCγ1 and p44/42 MAPK; [1]): reduced; phosphorylation of p44/42 MAPK (Thr202/Tyr204) (PLCγ1 and p44/42 MAPK; [1]): reduced; levels of phospho-EGFR Ser-967, immunofluorescence (phospho-EGFR (Ser-967)): decreased significantly; levels of phospho-EGFR Ser-967, immunofluorescence (phospho-EGFR (Ser-967); [1]): reduced
